From ChEMBL document CHEMBL1158899, “Synthesis and structure-phytotoxicity relationships of acetylenic phenols and chromene metabolites, and their analogues, from the grapevine pathogen Eutypa lata” (J Nat Prod, 2003)

How the values were obtained:
Vitis vinifera [1] = test: Phytotoxicity against grape leaf by leaf disk assay; type: organism-based; conditions: in vivo
Vitis vinifera [2] = test: Phytotoxicity against grape leaf assessed as decrease in chlorophyll level after 64 hrs by leaf disk assay relative to control; type: organism-based; design: scale not given: the % may be the effect or the level left; conditions: in vivo

Compound | Activity (Vitis vinifera [1]) | Activity (Vitis vinifera [2]) [%]
C=C(C)C#Cc1cc(C=O)ccc1O [EUTYPINE] | Active | –
CC1(C)C=Cc2cc(CO)ccc2O1 [EULATACHROMENE] | – | 60
C=C(C)C#Cc1cc(O)ccc1O [SICCAYNE] | Not Active | –
